Two compounds from publication PMC10317891, “Fibroblast activation protein targeted radiotherapy induces an immunogenic tumor microenvironment and enhances the efficacy of PD-1 immune checkpoint inhibition” (European Journal of Nuclear Medicine and Molecular Imaging, 2023) can be followed below.

A short description of the data set: Plasma stability. The format is in vitro ADME. To be noted: 10 µM, 37°C, UHPLC-QTOF MS with internal standard; for Plasma Stability (24 h) Human Plasma: human plasma with 3.8% sodium citrate; for Plasma Stability (24 h) Mouse Plasma: mouse plasma with 3.8% sodium citrate. How it is done:
FAP-2287 was incubated in 50 µL of plasma with 3.8% sodium citrate as anticoagulant at a concentration of 10 µM. After 1, 2, 4, and 24 hours incubation at 37°C a suitable internal standard was added. FAP-2287 with plasma proteins were precipitated using 250 µL of a precipitation agent consisting of 1% trifluoroacetic acid in acetonitrile. Precipitation was carried out at room temperature for 30 minutes. After centrifugation at 18,200 relative centrifugal force (rcf) for 5 minutes, 100 µL of the supernatant was mixed with 100 µL of 1% formic acid.
A nonincubated plasma sample spiked with 10 µM sample concentration was prepared in the same way and was used as the reference. A pure plasma sample was incubated for 24 hours as a blank sample. A further pure plasma sample was incubated for 24 hours, processed as described above and spiked directly before analysis to determine the recovery. The samples were analyzed using an Agilent 1290 UHPLC system coupled to an Agilent 6530 QTOF mass spectrometer.
For the quantitative data analysis, the Agilent Quantitative Analysis B.08.00 software (RRID:SCR_015040) was used. The ion currents of the triply charged proton adducts of the compounds were extracted with a mass window of ±50 parts per million and the chromatographic peak was integrated. The concentration of the compound was determined by external matrix calibration with internal standard using 6 calibration samples (1, 2.5, 5, 7.5, 10, and 12.5 µM). A quadratic regression was performed. Carryover was determined by analyzing the blank sample directly after the highest calibration sample and comparing the determined peak areas. Recovery was calculated as the ratio between the spiked concentration of the recovery sample and the concentration calculated from the peak area of this sample.

Structures are written as SMILES. Numbered stars: 1 amine (or outer) side, 2 acyl side, 3 side chain; on linkers, the order of the positions; unused ones are H or OH. Bridge positions count the residues as written; N and C are the ends. Peptide text beside a SMILES is read from it. * marks the point of attachment. X1 = O=C(O)CN1CCN(CC(=O)O)CCN(CC(=O)N2CCN(Cc3cc(C[*:1])cc(C[*:2])c3)CC2)CCN(CC(=O)O)CC1; Hexanoyl = CCCCCC(=O)*

`CCCCCC(=O)N[C@H]1CSCc2cc(cc(CN3CCN(C(=O)CN4CCN(CC(=O)O)CCN(CC(=O)O)CCN(CC(=O)O)CC4)CC3)c2)CSC[C@@H](C(=O)N[C@@H](CC(=O)O)C(N)=O)NC(=O)[C@H](Cc2ccccc2)NC(=O)[C@H](CCC(N)=O)NC(=O)[C@H]([C@@H](C)O)NC(=O)[C@@H]2CCCN2C(=O)[C@@H]2CCCN2C1=O` [natLu-FAP-2287, metal not drawn] (Hexanoyl-CPPTQFCD-NH2; linker 1-7 via X1; N-terminus and C-terminus assumed): the “Plasma Stability (24 h) Human Plasma” value is on record as over 80% and the “Plasma Stability (24 h) Mouse Plasma” value was over 80%.

Turning to `CCCCCC(=O)N[C@H]1CSCc2cc(cc(CN3CCN(C(=O)CN4CCN(CC(=O)O)CCN(CC(=O)O)CCN(CC(=O)O)CC4)CC3)c2)CSC[C@@H](C(=O)N[C@@H](CC(=O)O)C(N)=O)NC(=O)[C@H](Cc2ccccc2)NC(=O)[C@H](CCC(N)=O)NC(=O)[C@H]([C@@H](C)O)NC(=O)[C@@H]2CCCN2C(=O)[C@@H]2CCCN2C1=O` [FAP-2287] (Hexanoyl-CPPTQFCD-NH2; linker 1-7 via X1), the “Plasma Stability (24 h) Human Plasma” value was over 80% and the “Plasma Stability (24 h) Mouse Plasma” value was over 80%.
